Data from EPA's ToxRefDB 2.

Columns and labels:
rat [1] = settings: Prenatal developmental toxicity study, sprague dawley, Oral, Gavage/Intubation, dose end: 17 GD
rabbit = settings: Prenatal developmental toxicity study, new zealand white, Oral, Gavage/Intubation, dose end: 19 GD
rat [2] = settings: Prenatal developmental toxicity study, wistar, Oral, Gavage/Intubation, dose end: 10 GD
rat [3] = settings: Acute oral toxicity, wistar, Gavage/Intubation, dose end: 7 day, group: systemic, systemic / clinical chemistry / calcium / calcium + systemic / urinalysis / calcium / calcium
rat [4] = settings: Prenatal developmental toxicity study, fischer, Oral, Gavage/Intubation, dose end: 10 GD
mouse [5] = settings: Subchronic oral toxicity in rodents, b6c3f1, Gavage/Intubation, dose end: 6 month, group: systemic
rat [6] = settings: Subchronic oral toxicity in rodents, fischer, Gavage/Intubation, dose end: 6 month, group: systemic
rat [7] = settings: Multigenerational reproductive toxicity study, sprague dawley, Oral, Gavage/Intubation, dose end: 2 generation
rat [8] = settings: Fertility (Segment I), sprague dawley, Oral, Gavage/Intubation, dose end: 0 mating
rat [9] = settings: Combined chronic toxicity/carcinogenicity; fischer; Oral; Gavage/Intubation; dose end: 2 year; group: systemic; systemic / in life observation / body weight / body weight + systemic / pathology microscopic / kidney / nephropathy + systemic / pathology …
mouse [10] = settings: Multigenerational reproductive toxicity study, other, Oral, Gavage/Intubation, dose end: 21 PND
rat [11] = settings: Subchronic oral toxicity in rodents, wistar, Water, dose end: 90 day
mouse [12] = settings: Combined chronic toxicity/carcinogenicity, b6c3f1, Oral, Gavage/Intubation, dose end: 2 year, group: systemic
mouse [13] = settings: Subchronic oral toxicity in rodents, other, Gavage/Intubation, dose end: 13 week, group: systemic, systemic / clinical chemistry / alanine aminotransferase (alt/sgpt) / alanine aminotransferase (alt/sgpt) + systemic / clinical chemistry / …
rat [14] = settings: Prenatal developmental toxicity study, sprague dawley, Oral, Gavage/Intubation, dose end: 20 GD
[15] = group: developmental, developmental / developmental malformation / bone / [other] + developmental / developmental malformation / bone / kinked + developmental / …
[16] = group: developmental, developmental / developmental malformation / heart / [other] + developmental / developmental malformation / ureter / convoluted
[17] = group: maternal, reproductive / reproductive performance / postimplantation loss / postimplantation loss + reproductive / reproductive performance / …
[18] = group: maternal, systemic / organ weight / uterus / nos + reproductive / offspring survival early / live fetuses / live fetuses
[19] = group: developmental, systemic / in life observation / body weight / fetal weight
[20] = group: maternal, reproductive / reproductive performance / aborted / aborted + systemic / in life observation / body weight / body weight + systemic / in …
[21] = group: developmental, developmental / developmental malformation / bone / [other] + developmental / developmental malformation / bone / incomplete ossification + …
[22] = group: maternal, reproductive / reproductive performance / resorptions / resorptions + reproductive / offspring survival early / dead fetuses / dead fetuses
[23] = group: developmental, developmental / developmental malformation / bone / [other] + developmental / developmental malformation / general / crown-rump length + …
[24] = group: maternal, reproductive / reproductive performance / resorptions / resorptions + reproductive / offspring survival early / dead fetuses / dead fetuses…
[25] = systemic / pathology microscopic / kidney / vacuolization cytoplasmic + systemic / in life observation / body weight / body weight + …
[26] = systemic / in life observation / body weight / body weight + systemic / clinical chemistry / alanine aminotransferase (alt/sgpt) / alanine …
[27] = group: offspring, developmental / offspring survival late / viability index / viability index + systemic / in life observation / body weight / offspring (pup…
[28] = group: offspring, systemic / in life observation / body weight / offspring (pup) weight + systemic / organ weight / liver / absolute + systemic / organ weight…
[29] = group: parental, systemic / in life observation / body weight / body weight + systemic / in life observation / mortality / mortality + systemic / organ …
[30] = group: parental, systemic / in life observation / mortality / mortality + systemic / organ weight / kidney / absolute + systemic / organ weight / kidney / …
[31] = group: reproductive, reproductive / reproductive performance / fertility / fertility + reproductive / offspring survival early / litter size / litter size + …
[32] = group: reproductive, reproductive / reproductive performance / fertility / fertility + reproductive / reproductive performance / implantations / implantations + …
[33] = group: maternal, reproductive / reproductive performance / implantations / implantations
[34] = group: parental, systemic / clinical chemistry / luteinizing hormone (lh) / luteinizing hormone (lh) + systemic / clinical chemistry / progesterone / …
[35] = group: parental, systemic / in life observation / body weight / body weight gain
[36] = group: offspring, developmental / offspring survival late / viability index / viability index
[37] = group: parental, systemic / organ weight / kidney / relative to body weight
[38] = group: parental, systemic / organ weight / kidney / relative to body weight + systemic / in life observation / body weight / body weight
[39] = group: reproductive, reproductive / reproductive performance / fertility / fertility
[40] = group: reproductive, reproductive / reproductive performance / fertility / fertility + reproductive / offspring survival early / live fetuses / live fetuses
[41] = group: maternal, reproductive / reproductive performance / fertility / fertility + reproductive / reproductive performance / mating / mating
[42] = group: systemic, systemic / organ weight / epididymis / absolute + systemic / organ weight / prostate / absolute + systemic / organ weight / seminal vesicle…
[43] = group: systemic, systemic / pathology gross / sperm measure / sperm count + systemic / pathology gross / sperm measure / sperm motility
[44] = systemic / pathology microscopic / kidney / nephropathy + systemic / pathology microscopic / kidney / vacuolization cytoplasmic
[45] = systemic / pathology microscopic / kidney / nephropathy + systemic / pathology microscopic / kidney / vacuolization cytoplasmic + systemic…
[46] = group: developmental, developmental / developmental malformation / bone / [other] + developmental / developmental malformation / bone / fused + developmental / …
[47] = group: maternal, reproductive / reproductive performance / postimplantation loss / postimplantation loss + systemic / in life observation / body weight / …
[48] = group: maternal, systemic / in life observation / body weight / body weight gain

Work on `CC(=O)Oc1ccccc1C(=O)O` [Aspirin] yielded an LOAEL (rat [1]; [15]) of over 1000 mg/kg/day, an NOAEL (rat [1]; [15]) of at least 1000 mg/kg/day and an LEL (rat [1]; [16]) of 50 mg/kg/day. It also gave an NEL (rat [1]; [16]) of under 50 mg/kg/day, an LOAEL (rat [1]; [17]) of over 1000 mg/kg/day and an NOAEL (rat [1]; [17]) of at least 1000 mg/kg/day. It also gave an LEL (rat [1]; [18]) of 50 mg/kg/day, an NEL (rat [1]; [18]) of under 50 mg/kg/day and an LEL (rabbit; [19]) of 350 mg/kg/day. The LOAEL (rabbit; [19]) was over 350 mg/kg/day, the NEL (rabbit; [19]) was 250 mg/kg/day and the NOAEL (rabbit; [19]) was at least 350 mg/kg/day. It also gave an LOAEL (rabbit; [20]) of over 350 mg/kg/day, an NEL (rabbit; [20]) of 125 mg/kg/day and an NOAEL (rabbit; [20]) of at least 350 mg/kg/day. For the same compound, the LEL (rabbit; group: maternal, systemic / in life observation / body weight / body weight gain + systemic / in life observation / clinical signs / defecation (diarrhea) + …) was 250 mg/kg/day, the LEL (rat [2]; [21]) was 500 mg/kg/day and the LOAEL (rat [2]; [21]) was over 500 mg/kg/day. The NEL (rat [2]; [21]) was under 500 mg/kg/day, the NOAEL (rat [2]; [21]) was at least 500 mg/kg/day and the LEL (rat [2]; [22]) was 500 mg/kg/day. It also gave an LOAEL (rat [2]; [22]) of over 500 mg/kg/day, an NEL (rat [2]; [22]) of under 500 mg/kg/day and an NOAEL (rat [2]; [22]) of at least 500 mg/kg/day. The LEL (rat [3]) was 100 mg/kg/day, the LOAEL (rat [3]) was over 100 mg/kg/day and the NEL (rat [3]) was under 100 mg/kg/day. For the same compound, the NOAEL (rat [3]) was at least 100 mg/kg/day, the LEL (rat [4]; [23]) was 500 mg/kg/day and the LOAEL (rat [4]; [23]) was over 625 mg/kg/day. It also gave an NEL (rat [4]; [23]) of under 500 mg/kg/day, an NOAEL (rat [4]; [23]) of at least 625 mg/kg/day and an NEL (rat [4]; group: maternal, reproductive / reproductive performance / resorptions / resorptions) of 500 mg/kg/day. It also gave an LEL (rat [4]; [24]) of 625 mg/kg/day, an LOAEL (rat [4]; [24]) of over 625 mg/kg/day and an NOAEL (rat [4]; [24]) of at least 625 mg/kg/day.
Work on `[Cl][Hg][Cl]` [Mercuric chloride] yielded an LOAEL (mouse [5]; systemic / pathology microscopic / kidney / vacuolization cytoplasmic) of 10 mg/kg/day, an NEL (mouse [5]; [25]) of 2.5 mg/kg/day and an NOAEL (mouse [5]; [25]) of 5 mg/kg/day. It also gave an LEL (mouse [5]; systemic / pathology microscopic / kidney / vacuolization cytoplasmic + systemic / organ weight / kidney / absolute) of 5 mg/kg/day, an LEL (rat [6]; [26]) of 0.312 mg/kg/day and an NEL (rat [6]; [26]) of under 0.312 mg/kg/day. For the same compound, the NOAEL (rat [6]; systemic / in life observation / body weight / body weight + systemic / pathology microscopic / kidney / nephropathy + systemic / organ …) was 2.5 mg/kg/day, the LOAEL (rat [6]; systemic / pathology microscopic / kidney / nephropathy) was 5 mg/kg/day and the LOAEL (rat [7]; [27]) was over 2.5 mg/kg/day. For the same compound, the NOAEL (rat [7]; [27]) was at least 2.5 mg/kg/day, the LEL (rat [7]; [28]) was 0.5 mg/kg/day and the NEL (rat [7]; [28]) was under 0.5 mg/kg/day. It also gave an LOAEL (rat [7]; [29]) of over 2.5 mg/kg/day, an NOAEL (rat [7]; [29]) of at least 2.5 mg/kg/day and an LEL (rat [7]; [30]) of 0.5 mg/kg/day. It also gave an NEL (rat [7]; [30]) of under 0.5 mg/kg/day, an LEL (rat [7]; [31]) of 0.5 mg/kg/day and an NEL (rat [7]; [31]) of under 0.5 mg/kg/day. It also gave an LOAEL (rat [7]; [32]) of over 2.5 mg/kg/day, an NOAEL (rat [7]; [32]) of at least 2.5 mg/kg/day and an LEL (rat [8]; [33]) of 2 mg/kg/day. The LOAEL (rat [8]; [33]) was over 2 mg/kg/day, the NEL (rat [8]; [33]) was 1 mg/kg/day and the NOAEL (rat [8]; [33]) was at least 2 mg/kg/day. The LOAEL (rat [8]; [34]) was over 2 mg/kg/day, the NOAEL (rat [8]; [34]) was at least 2 mg/kg/day and the LEL (rat [8]; [35]) was 1 mg/kg/day. For the same compound, the NEL (rat [8]; [35]) was under 1 mg/kg/day, the LEL (rat [9]) was 2.5 mg/kg/day and the LOAEL (rat [9]) was 2.5 mg/kg/day. It also gave an NEL (rat [9]) of under 2.5 mg/kg/day, an NOAEL (rat [9]) of under 2.5 mg/kg/day and an LEL (mouse [10]; [36]) of 1 mg/kg/day. For the same compound, the LOAEL (mouse [10]; [36]) was over 1 mg/kg/day, the NEL (mouse [10]; [36]) was 0.5 mg/kg/day and the NOAEL (mouse [10]; [36]) was at least 1 mg/kg/day. For the same compound, the LEL (mouse [10]; [37]) was 0.25 mg/kg/day, the NEL (mouse [10]; [37]) was under 0.25 mg/kg/day and the LOAEL (mouse [10]; [38]) was over 1 mg/kg/day. For the same compound, the NOAEL (mouse [10]; [38]) was at least 1 mg/kg/day, the LEL (mouse [10]; [39]) was 0.25 mg/kg/day and the NEL (mouse [10]; [39]) was under 0.25 mg/kg/day. The LOAEL (mouse [10]; [40]) was over 1 mg/kg/day, the NOAEL (mouse [10]; [40]) was at least 1 mg/kg/day and the LEL (rat [11]; [41]) was 5 mg/kg/day. It also gave an LOAEL (rat [11]; [41]) of over 5 mg/kg/day, an NEL (rat [11]; [41]) of 2.5 mg/kg/day and an NOAEL (rat [11]; [41]) of at least 5 mg/kg/day. It also gave an LOAEL (rat [11]; [42]) of over 5 mg/kg/day, an NOAEL (rat [11]; [42]) of at least 5 mg/kg/day and an LEL (rat [11]; [43]) of 2.5 mg/kg/day. It also gave an NEL (rat [11]; [43]) of under 2.5 mg/kg/day, an LOAEL (mouse [12]; [44]) of 5 mg/kg/day and an NOAEL (mouse [12]; [44]) of under 5 mg/kg/day. The LEL (mouse [12]; [45]) was 5 mg/kg/day and the NEL (mouse [12]; [45]) was under 5 mg/kg/day.
Compound `CC[C@H](C)C(=O)O[C@H]1C[C@@H](C)C=C2C=C[C@H](C)[C@H](CC[C@@H]3C[C@@H](O)CC(=O)O3)[C@H]21` [Lovastatin] has an LEL (mouse [13]) of 30 mg/kg/day, an LOAEL (mouse [13]) of over 30 mg/kg/day and an NEL (mouse [13]) of under 30 mg/kg/day. For the same compound, the NOAEL (mouse [13]) was at least 30 mg/kg/day, the LOAEL (rat [14]; [46]) was over 800 mg/kg/day and the NOAEL (rat [14]; [46]) was at least 800 mg/kg/day. It also gave an LEL (rat [14]; [19]) of 100 mg/kg/day, an NEL (rat [14]; [19]) of under 100 mg/kg/day and an LOAEL (rat [14]; [47]) of over 800 mg/kg/day. It also gave an NOAEL (rat [14]; [47]) of at least 800 mg/kg/day, an LEL (rat [14]; [48]) of 100 mg/kg/day and an NEL (rat [14]; [48]) of under 100 mg/kg/day.
